Measured values: patent US4176009A, “Method of measuring collagenase activity” (Ajinomoto Co., Inc., priority 1976, dated 1979)
Non-standard residues stand in square brackets, D forms with d. Residues, ends and D or L forms follow the SMILES beside them. *: point of attachment. Dnp = O=[N+]([O-])c1ccc(*)c([N+](=O)[O-])c1

Assays:
[1] = system: purified collagenase; assay: Rate of hydrolysis of DNP-peptide derivatives by purified collagenase (Example 15); type: biochemical, tadpole; conditions: 5×10^-4 M peptide, purified collagenase 6.2 U/ml, 37° C., pH 7.5; average of three experiments; extraction with ethyl acetate (* compounds: ethyl acetate-n-butanol 1:0.15)
Procedure: (§1) Purified collagenase used in Examples was prepared from cultured media of tadpole skin explants as described in Biochem. Biophs. Acta, 263 564(1972), and non-specific peptidases were prepared by subjecting 5 ml of fresh adult human serum to chromatography on a calibrated Sephadex G-200 superfine gel column equilibrated with 0.05 M Tris-HCl buffer, pH 7.5, containing 0.15 M NaCl and 5 mM CaCl2, and gathering the effluent fractions corresponding to molecular weights of 100,000-180,000.
(§2) Various DNP-peptide derivatives were dissolved in 0.05 M Tris-HCl buffer, pH 7.5, containing 0.15 M NaCl, 5 mM CaCl2 and 0.02% bovine serum albumin to make a concentration of 5×10^-4 M. 0.1 ml Each of the peptide derivative solutions was mixed with an equal volume of purified collagenase (6.2 U/ml) or non-specific peptidases and incubated for various periods at 37° C. After stopping the enzyme reaction by adding 0.5 ml of 1 M HCl, the DNP-peptide fragments released were extracted by vigorous shaking with 1 ml of ethylacetate or ethyl acetate-n-butanol (1:0.15, V/V), and worked up as in Example 12.

[2] = system: non-specific peptidases; assay: Rate of hydrolysis of DNP-peptide derivatives by non-specific peptidases (Example 15); type: biochemical, human; conditions: 5×10^-4 M peptide, 37° C., pH 7.5; average of three experiments; extraction with ethyl acetate (* compounds: ethyl acetate-n-butanol 1:0.15)
Procedure: as §1, §2

[3] = system: collagenase in synovial fluids; assay: Hydrolysis of substrate solutions by synovial fluids from patients; collagenase activity (Example 14); type: biochemical, human; conditions: for OD365/0.1 ml ohr: 0 hr; for OD365/0.1 ml 2hr: 2 hr at 37° C.; for OD365/0.1 ml increment: 2 hr minus 0 hr
Procedure: (§3) The DNP-peptide fragments released were extracted by vigorous shaking with 1 ml of ethyl acetate-n-butanol (1:0.15, V/V) followed by centrifugation at 3,000-5,000 rpm and room temperature for 10 minutes to separate two layers completely. The degree of hydrolysis was determined by measuring the absorbance of the organic layer at 365 nm.
0.2 ml Each of the substrate (solutions(a) and (b) prepared in Example 12 was mixed with 0.1 ml of synovial fluids from patients with osteoarthritis and rheumatoid arthritis, and incubated for 2 hours at 37° C. After stopping the enzyme reaction by adding 0.5 ml of 1 M hydrochloric acid, the DNP-peptide fragments released were extracted by vigorous shaking with 2 ml of ethyl acetate-n-butanol (1:0.15, V/V), and worked up as in Example 12 to obtain the collagenase activities.

[4] = system: purified collagenase; assay: Time course of hydrolysis of substrate solutions by purified collagenase (Example 12); type: biochemical, tadpole; conditions: for 00365 (absorbance of the organic layer at 365 nm): pH 7.5
Procedure: as §1
DNP-Pro-Gln-Gly-Ile-Ala-Gly-Gln-D-Arg-OH.CH3 COOH.H2 O (4.96 mg) was neutralized with 0.1N sodium hydroxide, and dissolved in 0.05M tris-HCl buffer, pH 7.5, containing 0.15 M NaCl and 5 m MCaCl2 to make 10 ml of the substrate solution (a) having a concentration of 5×10^-4 M. The substrate solution (b) was also prepared similarly by using DNP-Gln-Gly-Ile-Ala-Gly-Gln-D-Arg-OH.CH3 COOH.H2 O (4.48 mg).
0.9 ml Each of the substrate solutions was diluted with 0.88 ml of 0.05M tris-HCl buffer, pH 7.5, containing 0.15 M NaCl, and 5 m MCaCl2. The resulting solution was mixed with 0.02 ml of purified collagenase, and incubated. 0.2 ml Aliquots of the reaction mixture were taken out at 0, 10, 20, 40, 60 and 120 minutes, and mixed with 0.5 ml of 1M hydrochloric acid for stopping the enzyme reaction.
as §3

[5] = synovial fluid of case five, RA
[6] = synovial fluid of case four, OA
[7] = synovial fluid of case three, RA

**Q.** For CC[C@H](C)[C@H](NC(=O)CNC(=O)[C@H](CCC(N)=O)NC(=O)[C@@H]1CCCN1c1ccc([N+](=O)[O-])cc1[N+](=O)[O-])C(=O)N[C@@H](C)C(=O)NCC(=O)N[C@H](CCCNC(=N)N)C(=O)O [Example 8, DNP-Pro-Gln-Gly-Ile-Ala-Gly-D-Arg-OH] (Dnp-PQGIAG[dR]-OH), which “Rate of hydrolysis by Collagenase” value [1] is on record?
**A.** 0.157 OD365/hr

**Q.** What about the “Rate of hydrolysis by non-specific peptidases” value [2] of the same compound?
**A.** 0.021 OD365/hr

**Q.** CC[C@H](C)[C@H](NC(=O)CNC(=O)[C@H](CC(C)C)NC(=O)[C@@H]1CCCN1c1ccc([N+](=O)[O-])cc1[N+](=O)[O-])C(=O)N[C@@H](C)C(=O)NCC(=O)N[C@@H](CCC(N)=O)C(=O)N[C@H](CCCNC(=N)N)C(=O)O [Example 9, DNP-Pro-Leu-Gly-Ile-Ala-Gly-Gln-D-Arg-OH] (Dnp-PLGIAGQ[dR]-OH) was tested. Which “Rate of hydrolysis by Collagenase” value [1] did it give?
**A.** 0.276 OD365/hr

**Q.** What about the “Rate of hydrolysis by non-specific peptidases” value [2] of the same compound?
**A.** 0 OD365/hr

**Q.** How did the “Rate of hydrolysis by Collagenase” value [1] turn out when CC[C@H](C)[C@H](NC(=O)CNC(=O)[C@H](CCC(N)=O)Nc1ccc([N+](=O)[O-])cc1[N+](=O)[O-])C(=O)N[C@@H](C)C(=O)NCC(=O)N[C@@H](CCC(N)=O)C(=O)N[C@H](CCCNC(=N)N)C(=O)O [Example 10, DNP-Gln-Gly-Ile-Ala-Gly-Gln-D-Arg-OH] was run?
**A.** 0 OD365/hr

**Q.** What about the “Rate of hydrolysis by non-specific peptidases” value [2] of the same compound?
**A.** 0 OD365/hr

**Q.** What about the OD365/0.1 ml ohr [3, 5] of the same compound?
**A.** 0.045 OD365/0.1 ml

**Q.** And the “OD365/0.1 ml 2hr” value [3, 5]?
**A.** 0.045 OD365/0.1 ml

**Q.** What about the OD365/0.1 ml increment [3, 5] of the same compound?
**A.** 0.000 OD365/0.1 ml

**Q.** And the OD365/0.1 ml ohr [3, 6]?
**A.** 0.038 OD365/0.1 ml

**Q.** And the “OD365/0.1 ml 2hr” value [3, 6]?
**A.** 0.040 OD365/0.1 ml

**Q.** What about the OD365/0.1 ml increment [3, 6] of the same compound?
**A.** 0.002 OD365/0.1 ml

**Q.** What about the OD365/0.1 ml ohr ([3]; synovial fluid of case one, RA) of the same compound?
**A.** 0.049 OD365/0.1 ml

**Q.** What about the “OD365/0.1 ml 2hr” value ([3]; synovial fluid of case one, RA) of the same compound?
**A.** 0.046 OD365/0.1 ml

**Q.** What about the OD365/0.1 ml increment ([3]; synovial fluid of case one, RA) of the same compound?
**A.** 0 OD365/0.1 ml

**Q.** And the OD365/0.1 ml ohr ([3]; synovial fluid of case six, OA)?
**A.** 0.050 OD365/0.1 ml

**Q.** What about the “OD365/0.1 ml 2hr” value ([3]; synovial fluid of case six, OA) of the same compound?
**A.** 0.041 OD365/0.1 ml

**Q.** What about the OD365/0.1 ml increment ([3]; synovial fluid of case six, OA) of the same compound?
**A.** 0 OD365/0.1 ml

**Q.** And the OD365/0.1 ml ohr [3, 7]?
**A.** 0.050 OD365/0.1 ml

**Q.** What about the “OD365/0.1 ml 2hr” value [3, 7] of the same compound?
**A.** 0.051 OD365/0.1 ml

**Q.** What about the OD365/0.1 ml increment [3, 7] of the same compound?
**A.** 0.001 OD365/0.1 ml

**Q.** What about the OD365/0.1 ml ohr ([3]; synovial fluid of case two, OA) of the same compound?
**A.** 0.035 OD365/0.1 ml

**Q.** What about the “OD365/0.1 ml 2hr” value ([3]; synovial fluid of case two, OA) of the same compound?
**A.** 0.038 OD365/0.1 ml

**Q.** And the OD365/0.1 ml increment ([3]; synovial fluid of case two, OA)?
**A.** 0.003 OD365/0.1 ml

**Q.** And the “00365 (absorbance of the organic layer at 365 nm)” value ([4]; incubation time 0 min)?
**A.** 0.027

**Q.** And the “increment of 00365” value ([4]; incubation time 10 min)?
**A.** 0

**Q.** And the “00365 (absorbance of the organic layer at 365 nm)” value ([4]; incubation time 10 min)?
**A.** 0.027

**Q.** What about the “increment of 00365” value ([4]; incubation time 20 min) of the same compound?
**A.** 0

**Q.** And the “00365 (absorbance of the organic layer at 365 nm)” value ([4]; incubation time 20 min)?
**A.** 0.027

**Q.** What about the “increment of 00365” value ([4]; incubation time 40 min) of the same compound?
**A.** 0.002

**Q.** And the “00365 (absorbance of the organic layer at 365 nm)” value ([4]; incubation time 40 min)?
**A.** 0.030

**Q.** And the “increment of 00365” value ([4]; incubation time 60 min)?
**A.** 0.002

**Q.** What about the “00365 (absorbance of the organic layer at 365 nm)” value ([4]; incubation time 60 min) of the same compound?
**A.** 0.029

**Q.** And the “increment of 00365” value ([4]; incubation time 120 min)?
**A.** 0

**Q.** And the “00365 (absorbance of the organic layer at 365 nm)” value ([4]; incubation time 120 min)?
**A.** 0.027

**Q.** CC[C@H](C)[C@H](NC(=O)CNC(=O)[C@H](C)Nc1ccc([N+](=O)[O-])cc1[N+](=O)[O-])C(=O)N[C@@H](C)C(=O)NCC(=O)N[C@@H](CCC(N)=O)C(=O)N[C@H](CCCNC(=N)N)C(=O)O [Example 11, DNP-Ala-Gly-Ile-Ala-Gly-Gln-D-Arg-OH] was tested. Which “Rate of hydrolysis by Collagenase” value [1] did it give?
**A.** 0 OD365/hr

**Q.** What about the “Rate of hydrolysis by non-specific peptidases” value [2] of the same compound?
**A.** 0.016 OD365/hr
